Test systems include NCI-H23; HOP-92; HCT-15; K562; Malme-3M; OVCAR-5; HCC 2998; UACC-62; SW-620; SN12C; KM12; MOLT-4; OVCAR-3; ACHN; SK-MEL-2; A498; CAKI-1; SNB-19; M14; MDA-MB-231.
Holding throughout (assay): NCI anticancer screen, dose series, 48 h

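All cell lines were grown in 96-well plates and treated with compound for 48 hours. GI50: concentration for 50% inhibition of growth.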 Calls of active or inactive are those of the source. Rule as the data show it: active = GI50 up to about 1.1 µM and inactive = higher.

`O=c1/c(=C/c2ccc3c(c2)OCO3)sc2nnc(Cc3ccccc3)n12`: the GI50 in the experiment with NCI-H23 was > 100 µM (inactive); in the experiment with HOP-92, > 100 µM (inactive); in the experiment with HCT-15 it was > 100 µM; in the experiment with K562 it was > 100 µM (inactive); in the experiment with Malme-3M it was > 100 µM (inactive); with OVCAR-5, > 100 µM (inactive). In addition, the GI50 is 81.8 µM (inactive) in the experiment on HCC 2998; > 100 µM (inactive) with UACC-62; > 100 µM (inactive) with SW-620; > 100 µM (inactive) in the experiment on SN12C; > 100 µM (inactive) in the experiment on KM12; > 100 µM (inactive) in the experiment on MOLT-4. Further, the GI50 with OVCAR-3, with ACHN, in the experiment on SK-MEL-2, in the experiment with A498, with CAKI-1 and in the experiment with SNB-19 was > 100 µM (inactive) throughout. Also, the GI50 in the experiment on M14 is > 100 µM (inactive).
For the compound `O=C(OCC(Cl)(Cl)Cl)N1CC[C@H](C2CCCCC2)C1`, the GI50 was 15.3 µM (inactive) with NCI-H23; 35.5 µM (inactive) in the experiment with MDA-MB-231; 18.2 µM in the experiment with HCT-15; 21.1 µM (inactive) in the experiment on K562; 18.9 µM (inactive) in the experiment with OVCAR-5; 18.5 µM (inactive) with HCC 2998. Further, the GI50 in the experiment on UACC-62 was 22.1 µM (inactive); in the experiment with SN12C it was 37.2 µM (inactive); with KM12 it was 17.3 µM (inactive); with MOLT-4 it was 28.1 µM (inactive); in the experiment on OVCAR-3 it was 16.6 µM (inactive); in the experiment on ACHN, 19.3 µM (inactive). Also, the GI50 in the experiment with SK-MEL-2 was 15.8 µM (inactive); with CAKI-1, 31.6 µM (inactive); in the experiment on SNB-19, 16.5 µM (inactive); in the experiment with M14 it was 20.7 µM (inactive).
In the case of `C1=NN(Cc2ccccc2)C(N(Cc2ccccc2)Cc2ccccc2)N1` (configuration not stated), the GI50 is 16.9 µM (inactive) in the experiment with NCI-H23; 12.8 µM (inactive) in the experiment with HOP-92; 16.1 µM in the experiment on HCT-15; 8.91 µM (inactive) in the experiment on K562; 12.2 µM (inactive) with Malme-3M; 13 µM (inactive) in the experiment with OVCAR-5. For the same compound, the GI50 was 17.5 µM (inactive) in the experiment with HCC 2998; 14 µM (inactive) in the experiment on UACC-62; 20.6 µM (inactive) in the experiment on SW-620; 17 µM (inactive) with SN12C; 16.3 µM (inactive) with KM12; 15.2 µM (inactive) in the experiment with MOLT-4. The GI50 with OVCAR-3 is 14 µM (inactive); in the experiment with ACHN, 19.7 µM (inactive); in the experiment on SK-MEL-2 it was 16.4 µM (inactive); in the experiment on A498, 17.7 µM (inactive); in the experiment on CAKI-1 it was 14.4 µM (inactive); in the experiment with SNB-19, 20.9 µM (inactive). Besides, the GI50 in the experiment on M14 is 11 µM (inactive).
Regarding `COc1cc2c(cc1Cl)[n+]([O-])c(C#N)c(N1CCN(c3ccc([N+](=O)[O-])cc3)CC1)[n+]2[O-]`, the GI50 is 17.1 µM (inactive) in the experiment with NCI-H23; 41.8 µM (inactive) in the experiment on MDA-MB-231; 11.1 µM in the experiment with HCT-15; 9.29 µM (inactive) in the experiment with K562; 14.8 µM (inactive) with Malme-3M; 67.8 µM (inactive) in the experiment on OVCAR-5. Besides, the GI50 with HCC 2998 is 19.1 µM (inactive); in the experiment with UACC-62, 11.6 µM (inactive); in the experiment with SW-620, 22.5 µM (inactive); with SN12C, 32.6 µM (inactive); with KM12, 21.9 µM (inactive); in the experiment with MOLT-4, 5 µM (inactive). Further, the GI50 in the experiment with OVCAR-3 was 52.6 µM (inactive); in the experiment on ACHN it was 14.7 µM (inactive); with SK-MEL-2 it was 49.3 µM (inactive); with CAKI-1, 48.5 µM (inactive); in the experiment on SNB-19, 32 µM (inactive); in the experiment with M14, 17.5 µM (inactive).

Source of the values: ChEMBL document CHEMBL1201862, “PubChem BioAssay data set” (2004).
